Measurements: patent US20240342186A1, “PYRIDINE DERIVATIVES WITH N-LINKED CYCLIC SUBSTITUENTS AS cGAS INHIBITORS” (Boehringer Ingelheim International GmbH, priority 2021, published 2024)
Read-outs that look alike come from different tables or passages of the source.

Assays:
cGAS = cGAS (Homo sapiens (Human), UniProt Q8N884); assay: Human cGAS enzyme assay (hcGAS IC50, in vitro), cGAMP formation by RapidFire MS; format: biochemical;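 note: enzyme activated by 45 bp dsDNA with GTP and ATP (30 µM each), 60 min compound pre-incubation then 90 min reaction, cGAMP relative to cyclic-di-GMP internal standard, 8-point dilutions up to 10 µM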
[1] = test system: cellular cGAS activity in baculovirus-stimulated THP1-Dual cells (IRF dependent Lucia luciferase reporter); assay: Human cGAS cell assay: inhibition of IFN induction in virus-stimulated THP1 cells (THP1(vir) IC50); format: cell-based; details: Homo sapiens, THP1-Dual
Method in brief: (§1)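 THP1-Dual cells with IRF-dependent Lucia luciferase reporter, stimulated by empty baculovirus (dsDNA delivery activating cGAS) or, for the counter assay, directly by cGAMP. 5000 cells/well, 8 concentrations from 10 μM top, 1% DMSO, 18 h at 37 °C; luminescence read, IC50 by 4-parameter logistic fit versus unstimulated low control.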

[2] = test system: cGAMP-stimulated THP1-Dual cells (pathway directly downstream of cGAS); assay: cGAMP stimulated counter cell assay: inhibition of IFN induction in cGAMP-stimulated THP1 cells (THP1(cGAMP) IC50); format: cell-based, human; details: for IC50: Homo sapiens, THP1-Dual, read-out: THP1(cGAMP) IC50 (converted); for Ratio THP1(cGAMP) IC50 / THP1(vir) IC50: selectivity for cGAS inhibition
Method in brief: as §1

[3] = test system: cellular cGAS activity in dsDNA-stimulated human whole blood; assay: Human whole blood assay (hWB IC50): IFNα2α production after dsDNA transfection; format: cell-based
Method in brief: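 Citrated blood from healthy donors preincubated 60 min at room temperature with compound (top 10 µM, ~1:5 steps, 0.1% DMSO), then transfected with dsDNA/Fugene and incubated 22 h at 37 °C. Plasma IFNα2α measured by MSD immunoassay; IC50 from 4-parameter fit of % control (stimulated vs unstimulated).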

[4] = biochemical (in vitro) cGAS inhibition
[5] = inhibition of IFN induction in virus-stimulated THP1 cells, read-out: THP1(vir) IC50
[6] = inhibition of IFN induction in cGAMP-stimulated THP1 cells
[7] = inhibition of IFN induction in dsDNA-stimulated human whole blood
[8] = biochemical (in vitro), human cGAS, 45 bp dsDNA, GTP/ATP

Sequence of cGAS (Q8N884 whole entry): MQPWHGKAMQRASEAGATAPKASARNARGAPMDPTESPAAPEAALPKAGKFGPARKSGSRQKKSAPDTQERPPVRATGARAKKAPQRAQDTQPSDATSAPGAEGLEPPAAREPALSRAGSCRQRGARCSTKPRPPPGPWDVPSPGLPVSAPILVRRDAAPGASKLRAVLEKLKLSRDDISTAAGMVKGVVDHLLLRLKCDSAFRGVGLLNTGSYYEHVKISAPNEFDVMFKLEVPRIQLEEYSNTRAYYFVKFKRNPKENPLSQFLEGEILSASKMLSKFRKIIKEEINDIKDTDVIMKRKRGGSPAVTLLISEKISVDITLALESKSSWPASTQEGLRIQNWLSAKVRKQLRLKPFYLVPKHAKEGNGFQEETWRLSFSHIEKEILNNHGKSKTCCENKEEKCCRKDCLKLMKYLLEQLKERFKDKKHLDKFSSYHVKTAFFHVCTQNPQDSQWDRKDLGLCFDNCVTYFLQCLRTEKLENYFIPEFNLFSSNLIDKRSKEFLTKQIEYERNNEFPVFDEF

IC50 (cGAS; [4]) [nM] | IC50 [1, 5] [nM] | IC50 [3, 7] [nM] | SMILES | IC50 [2, 6] [nM] | Ratio THP1(cGAMP) IC50 / THP1(vir) IC50 [2] | IC50 (cGAS; [8]) [nM] | IC50 ([1]; read-out: THP1(vir) IC50, virus-stimulated THP1 cells, IFN induction) [nM] | IC50 ([2]; cGAMP-stimulated THP1 cells, counter assay) [nM] | IC50 ([3]; dsDNA-stimulated human whole blood, IFN induction) [nM]
9 | 6 | 19 | CNc1cccc(-c2cnc(O[C@H]3C[C@@H](C(=O)O)N(c4nc(C(F)(F)F)nc5c4oc4ccccc45)C3)c(N3CCOC4(COC4)[C@@H]3C)c2)c1 [Example 3.12] | 11100 | 1930 |  |  |  | 
8 | 5 | 10 | CC(=O)Nc1ccc(-c2cnc(O[C@H]3C[C@@H](C(=O)O)N(c4nc(C(F)(F)F)nc5c4oc4ccccc45)C3)c(N3CCOC4(COC4)[C@@H]3C)c2)cn1 [Example 3.10] | 7910 | 1713 |  |  |  | 
13 | 306 | 1540 | CNc1cc(-c2cnc(O[C@H]3C[C@@H](C(=O)O)N(c4nc(C(F)(F)F)nc5c4oc4ccccc45)C3)c(N3CCOC[C@@H]3C)c2)ccn1 [Example 3.02] | 4920 | 16 |  |  |  | 
12 | 757 | 2420 | C[C@H]1COCCN1c1cc(-c2ccnc(C(F)F)c2)cnc1O[C@H]1C[C@@H](C(=O)O)N(c2nc(C(F)(F)F)nc3c2oc2ccccc23)C1 [Example 3.04] | 7780 | 10 |  |  |  | 
9 | 982 | 1610 | C[C@H]1COCCN1c1cc(-c2ccncc2)cnc1O[C@H]1C[C@@H](C(=O)O)N(c2nc(C(F)(F)F)nc3c2oc2ccccc23)C1 [Example 3.01, (2S,4S)-4-({5-[(3S)-3-methylmorpholin-4-yl]-[3,4′-bipyridin]-6-yl}oxy)-1-[4-(trifluoromethyl)-8-oxa-3,5-diazatricyclo[7.4.0.0^2,7]trideca-1(9),2(7),3,5,10,12-hexaen-6-yl]pyrrolidine-2-carboxylic acid] | > 16600 | >17 |  |  |  | 
4 | 5 | 11 | C[C@@H]1N(c2cc(-c3cccc(CO)c3)cnc2O[C@H]2C[C@@H](C(=O)O)N(c3nc(C(F)F)nc4c3oc3ccccc34)C2)CCOC12COC2 [Example 3.11] | 5290 | 1149 |  |  |  | 
14 | 1 | 13 | COc1csc(-c2cnc(O[C@H]3C[C@@H](C(=O)O)N(c4nc(C(F)(F)F)nc5c4oc4ccccc45)C3)c(N3CCOC4(COC4)[C@@H]3C)c2)n1 [Example 7.02] | 8320 | 7533 |  |  |  | 
3 | 30 | 50 | C[C@@H]1N(c2cc(-c3cn(C)cn3)cnc2O[C@H]2C[C@@H](C(=O)O)N(c3nc(C(F)(F)F)nc4c3oc3ccccc34)C2)CCOC12COC2 [Example 3.20] | 11500 | 383 |  |  |  | 
5 | 10 | 47 | C[C@@H]1N(c2cc(-n3cccn3)cnc2O[C@H]2C[C@@H](C(=O)O)N(c3nc(C(F)(F)F)nc4c3oc3ccccc34)C2)CCOC12COC2 [Example 10.01, (2S,4S)-4-({3-[(95)-9-methyl-2,5-dioxa-8-azaspiro[3.5]nonan-8-yl]-5-(1H-pyrazol-1-yl)pyridin-2-yl}oxy)-1-[4-(trifluoromethyl)-8-oxa-3,5-diazatricyclo[7.4.0.0^2,7]trideca-1(9),2(7),3,5,10,12-hexaen-6-yl]pyrrolidine-2-carboxylic acid] | > 10000 | >1000 |  |  |  | 
12 | 17 | 42 | COc1c(-c2cnc(O[C@H]3C[C@@H](C(=O)O)N(c4nc(C(F)F)nc5c4oc4ccccc45)C3)c(N3CCOC4(COC4)[C@@H]3C)c2)ccnc1N(C)C [Example 4.02] | 12600 | 735 |  |  |  | 
5 | 4 | 3 | CNc1cc(-c2cnc(O[C@H]3C[C@@H](C(=O)O)N(c4nc(C(F)F)nc5c4oc4ccccc45)C3)c(N3CCOC4(COC4)[C@@H]3C)c2)ccn1 [Example 3.08] | 4790 | 1179 |  |  |  | 
17 | 748 | 1620 | CCn1cc(-c2cnc(O[C@H]3C[C@@H](C(=O)O)N(c4nc(C(F)(F)F)nc5c4oc4ccccc45)C3)c(N3CCOC[C@@H]3C)c2)cn1 [Example 3.07] | 12300 | 16 |  |  |  | 
9 | 19 | 96 | COc1cc(-c2cnc(O[C@H]3C[C@@H](C(=O)O)N(c4nc(C(F)(F)F)nc5c4oc4ccccc45)C3)c(N3CCOC4(COC4)[C@@H]3C)c2)c(F)cn1 [Example 3.25] | 9710 | 502 |  |  |  | 

More lines, now with the values behind:

SMILES | IC50 (cGAS; [4]) [nM] | IC50 [1, 5] [nM] | IC50 [3, 7] [nM] | IC50 [2, 6] [nM] | Ratio THP1(cGAMP) IC50 / THP1(vir) IC50 [2] | IC50 (cGAS; [8]) [nM] | IC50 ([1]; read-out: THP1(vir) IC50, virus-stimulated THP1 cells, IFN induction) [nM] | IC50 ([2]; cGAMP-stimulated THP1 cells, counter assay) [nM] | IC50 ([3]; dsDNA-stimulated human whole blood, IFN induction) [nM]
C[C@H]1CN(C#N)CCN1c1cc(Br)cnc1O[C@H]1C[C@@H](C(=O)O)N(c2nc(C(F)F)nc3c2oc2ccccc23)C1 [Example 1.18] | 4 | 239 | 226 | 6510 | 27 |  |  |  | 
C[C@@H]1N(c2cc(Br)cnc2O[C@H]2C[C@@H](C(=O)O)N(c3nc(C(F)(F)F)nc4c3oc3ccccc34)C2)CCOC12COC2 [Example 1.10, (2S,4S)-4-({5-bromo-3-[(9S)-9-methyl-2,5-dioxa-8-azaspiro[3.5]nonan-8-yl]pyridin-2-yl}oxy)-1-[4-(trifluoromethyl)-8-oxa-3,5-diazatricyclo[7.4.0.0^2,7]trideca-1(9),2(7),3,5,10,12-hexaen-6-yl]pyrrolidine-2-carboxylic acid] |  | 91 | 33 | 16100 | 178 | 5 |  |  | 
C#Cc1cnc(O[C@H]2C[C@@H](C(=O)O)N(c3nc(CCl)nc4c3oc3ccccc34)C2)c(N2CCOC3(COC3)[C@@H]2C)c1 [Example 2.10] | 3 | 5 | 24 | 2750 | 533 |  |  |  | 
C#Cc1cnc(O[C@H]2C[C@@H](C(=O)O)N(c3nc(C(F)(F)F)nc4c3oc3cc(CC)ccc34)C2)c(N2CCOC3(COC3)[C@@H]2C)c1 [Example 2.09] | 6 | 31 | 37 | 5180 | 166 |  |  |  | 
COC(=O)[C@@H]1C[C@H](Oc2ncc(Br)cc2N2CCOC3(COC3)[C@@H]2C)CN1c1nc(C(F)(F)F)nc2c1oc1ccccc12 [Example P02] |  |  |  |  |  | > 9950 | 444 | 17100 | 5330
C#Cc1cnc(O[C@H]2C[C@@H](C(=O)O)N(c3nc(C)nc4c3oc3ccccc34)C2)c(N2CCOC[C@@H]2C)c1 [Example 1.29] | 4 | 296 | 61 | > 16600 | >56 |  |  |  | 
C#Cc1cnc(O[C@H]2C[C@@H](C(=O)O)N(c3nc(C(F)(F)Cl)nc4c3oc3ccccc34)C2)c(N2CCOC3(COC3)[C@@H]2C)c1 [Example 1.16] | 3 | 7 | 23 | 15000 | 2209 |  |  |  | 
C#Cc1cnc(O[C@H]2C[C@@H](C(=O)O)N(c3nc(C(F)F)nc4c3oc3ccccc34)C2)c(N2CCCC3(COC3)[C@@H]2C)c1 [Example 1.23] | 4 | 10 | 12 | 10900 | 1134 |  |  |  | 
C#Cc1cnc(O[C@H]2C[C@@H](C(=O)O)N(c3nc(Cl)nc4c3oc3ccccc34)C2)c(N2CCOC3(COC3)[C@@H]2C)c1 [Example 2.05] | 2 | 4 | 8 | 10800 | 3018 |  |  |  | 
C#Cc1cnc(O[C@H]2C[C@@H](C(=O)O)N(c3nc(CF)nc4c3oc3ccccc34)C2)c(N2CCOC3(COC3)[C@@H]2C)c1 [Example 2.04] | 1 | 3 | 5 | 25400 | 8125 |  |  |  | 
C[C@@H]1N(c2cc(Cl)cnc2O[C@H]2C[C@@H](C(=O)O)N(c3nc(C(F)F)nc4c3oc3ccccc34)C2)CCCC12COC2 [Example 1.21] | 4 | 85 | 46 | 14800 | 175 |  |  |  | 
C#Cc1cnc(O[C@H]2C[C@@H](C(=O)O)N(c3nc(C(F)F)nc4c3oc3ccccc34)C2)c(N2CCC3(C[C@@H]2C)N=N3)c1 [Example 1.20] | 2 | 796 | 670 | > 16600 | >21 |  |  |  | 
